# Experimental data from patent publication EP4775574A1, “FURAN RING-CONTAINING COMPOUND, PHARMACEUTICAL COMPOSITION THEREOF, AND USE THEREOF” (Wuhan Xirui Pharmaceutical Technology Co., Ltd, priority 2023, dated 2025).
# Target: T1, Nav1.8 sodium channel (Homo sapiens, UniProt Q9Y5Y9)
# T1 construct: host or cells: CHO
# Assay: Blocking activity against sodium channel 1.8 (Nav1.8), whole-cell patch-clamp, inhibition rate
# Format: cell-based
# Conditions: not given
# Protocol: Experimental objective: The effects of the compounds on the current of the voltage-gated sodium channel (NaV) 1.8 subtype were detected by patch-clamp technique • 2. […] When the cells were detached from the bottom of the dish, about 5 mL of preheated complete medium at 37°C was added. The cell suspension was gently pipetted up and down to separate the aggregated cells. The cell suspension was transferred to a sterile centrifuge tube and centrifuged at 1000 rpm for 5 min to collect the cells. […] First, the voltage was stepped from -130 mV to -10 mV in 10 mV increments for 5 s, and then a 0 mV depolarizing pulse was applied to obtain the half-inactivation voltage (Vhalf). The resting state and half-inactivated state of the sodium current were detected by using a double-pulse protocol. First, the first depolarizing pulse (TP1) was applied to 0 mV for 50 ms to detect the sodium current in the resting state. Then, the voltage was adjusted to Vhalf and maintained for 5 s, followed by restoration of the voltage to -120 mV and maintenance for 20 ms, after which the second depolarizing pulse (TP2) was applied to 0 mV for 50 ms to detect the sodium current in the half-inactivated state. Finally, the voltage was restored to the clamping voltage of -120 mV. Data were repeatedly collected every […] to observe the effect of the drug on the peak values of sodium currents in the two different states. Experimental data were collected by the EPC 10 amplifier (HEKA) and stored in the PatchMaster (HEKA) software. • (2) During patch clamp operation, capillary glass tubes were first pulled into recording electrodes using a microelectrode puller, then the electrodes filled with intracellular solution were installed into the microelectrode holder. Under an inverted microscope, the micromanipulator was used to bring the recording electrode into contact with the cell, and negative pressure suction was applied to form a GΩ seal. At this time, fast capacitance compensation was performed, and then negative pressure was continuously applied to rupture the cell membrane and form the whole-cell recording mode. Finally, slow capacitance compensation was performed, and related parameters were recorded. Leak compensation was not applied. • (3) When the sodium current of whole-cell recording became stable, drug administration was started, and each drug concentration was applied for 5 min (or until the current became stable) before the next concentration was tested. The coverslip coated with cells was placed in the recording bath under an inverted microscope, and the blank control external solution and the test compound working solution were perfused through the recording bath in sequence from low concentration to high concentration by gravity, thereby acting on the cells, while a peristaltic pump was used for liquid exchange during recording. The current detected in the external solution without compounds for each cell was used as its own control group. Each concentration was independently tested twice. All electrophysiological experiments were conducted at room temperature.
# First, the current after the effect of each drug concentration and the blank control current were normalized, then the inhibition rate corresponding to each drug concentration was calculated, that is, (1-Icompound /Icontrol), and the mean, standard deviation (SD), and standard error (SE) of the inhibition rate for each concentration were calculated, and the data were expressed as mean ± SE.
# T1 sequence (Q9Y5Y9 whole entry): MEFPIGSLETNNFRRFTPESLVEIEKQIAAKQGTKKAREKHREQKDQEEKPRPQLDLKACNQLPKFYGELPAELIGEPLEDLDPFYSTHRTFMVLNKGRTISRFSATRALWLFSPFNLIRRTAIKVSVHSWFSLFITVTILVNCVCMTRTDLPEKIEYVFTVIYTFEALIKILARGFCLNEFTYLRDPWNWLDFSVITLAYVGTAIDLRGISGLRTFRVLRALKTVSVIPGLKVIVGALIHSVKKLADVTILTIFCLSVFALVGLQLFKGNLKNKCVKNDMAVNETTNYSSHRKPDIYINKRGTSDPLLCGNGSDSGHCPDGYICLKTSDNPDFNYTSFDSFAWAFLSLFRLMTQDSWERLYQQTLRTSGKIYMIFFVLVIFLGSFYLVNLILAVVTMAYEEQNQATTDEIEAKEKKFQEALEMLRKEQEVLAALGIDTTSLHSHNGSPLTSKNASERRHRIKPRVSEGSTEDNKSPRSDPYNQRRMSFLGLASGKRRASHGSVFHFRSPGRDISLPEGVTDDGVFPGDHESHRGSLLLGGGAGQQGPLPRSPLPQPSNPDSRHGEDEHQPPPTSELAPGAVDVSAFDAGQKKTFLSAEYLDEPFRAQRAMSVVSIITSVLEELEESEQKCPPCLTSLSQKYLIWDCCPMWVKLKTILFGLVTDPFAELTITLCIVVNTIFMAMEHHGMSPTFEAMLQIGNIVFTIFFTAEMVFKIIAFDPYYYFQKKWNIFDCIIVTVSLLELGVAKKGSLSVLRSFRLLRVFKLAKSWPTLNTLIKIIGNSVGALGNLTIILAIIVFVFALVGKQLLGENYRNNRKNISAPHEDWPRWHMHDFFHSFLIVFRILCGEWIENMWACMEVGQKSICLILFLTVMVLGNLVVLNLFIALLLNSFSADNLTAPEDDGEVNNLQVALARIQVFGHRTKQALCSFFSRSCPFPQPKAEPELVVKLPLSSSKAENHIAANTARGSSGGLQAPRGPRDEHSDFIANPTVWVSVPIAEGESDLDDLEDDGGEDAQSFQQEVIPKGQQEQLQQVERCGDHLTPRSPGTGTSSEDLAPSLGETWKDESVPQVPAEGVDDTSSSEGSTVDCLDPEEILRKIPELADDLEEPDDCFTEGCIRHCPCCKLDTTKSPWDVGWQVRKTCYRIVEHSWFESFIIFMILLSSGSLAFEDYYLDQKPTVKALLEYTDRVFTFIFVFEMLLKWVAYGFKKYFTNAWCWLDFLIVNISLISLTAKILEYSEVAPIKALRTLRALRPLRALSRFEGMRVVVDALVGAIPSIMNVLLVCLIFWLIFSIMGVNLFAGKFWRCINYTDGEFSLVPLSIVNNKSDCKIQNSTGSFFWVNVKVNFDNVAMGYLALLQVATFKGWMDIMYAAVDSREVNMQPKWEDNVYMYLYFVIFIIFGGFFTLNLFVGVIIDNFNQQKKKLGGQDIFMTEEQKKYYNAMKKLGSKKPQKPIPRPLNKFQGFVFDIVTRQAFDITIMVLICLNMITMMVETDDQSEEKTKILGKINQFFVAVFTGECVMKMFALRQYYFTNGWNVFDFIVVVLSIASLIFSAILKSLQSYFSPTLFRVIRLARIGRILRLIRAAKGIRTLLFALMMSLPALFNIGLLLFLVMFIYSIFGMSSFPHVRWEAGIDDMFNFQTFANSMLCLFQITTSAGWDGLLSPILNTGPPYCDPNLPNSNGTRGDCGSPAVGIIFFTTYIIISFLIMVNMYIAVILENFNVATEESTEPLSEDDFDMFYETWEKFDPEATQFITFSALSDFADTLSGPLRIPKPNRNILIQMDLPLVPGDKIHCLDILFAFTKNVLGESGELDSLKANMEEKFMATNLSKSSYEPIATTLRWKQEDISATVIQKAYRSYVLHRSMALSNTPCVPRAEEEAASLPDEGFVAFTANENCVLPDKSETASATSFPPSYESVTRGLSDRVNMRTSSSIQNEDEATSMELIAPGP
row,Structure (SMILES),Inhibition rate (%)
1,COc1c(C2C(C(=O)Nc3ccc(F)c(C(=N)NC#N)c3)OC(C)(C(F)(F)F)C2C)ccc(F)c1F (centres unmarked) [Example 16],95.94
2,COc1c([C@H]2[C@H](C(=O)Nc3cc[n+]([O-])c(C(=N)NO)c3)O[C@@](C)(C(F)(F)F)[C@H]2C)ccc(F)c1F [Example 8],90.96
3,COc1c([C@H]2[C@H](C(=O)Nc3cc(F)c(F)c(C(=N)NO)c3)O[C@@](C)(C(F)(F)F)[C@H]2C)ccc(F)c1F [Example 13],89.85
4,COc1c([C@H]2[C@H](C(=O)Nc3ccnc(C(=O)NN)c3)O[C@@](C)(C(F)(F)F)[C@H]2C)ccc(F)c1F [Example 5],50.04
5,COc1c([C@H]2[C@H](C(=O)Nc3cc(C(=N)NO)c(F)cc3F)O[C@@](C)(C(F)(F)F)[C@H]2C)ccc(F)c1F [Example 14],84.01
6,COc1c([C@H]2[C@H](C(=O)Nc3ccc(F)c(C(=O)NO)c3)O[C@@](C)(C(F)(F)F)[C@H]2C)ccc(F)c1F [Example 9],97.24
7,CCONC(=O)c1cc(NC(=O)[C@@H]2O[C@@](C)(C(F)(F)F)[C@@H](C)[C@H]2c2ccc(F)c(F)c2OC)ccn1 [Example 2],76.36
8,COc1c([C@H]2[C@H](C(=O)Nc3ccc(F)c(C(=N)NO)c3F)O[C@@](C)(C(F)(F)F)[C@H]2C)ccc(F)c1F [Example 15],56.23
9,COc1c([C@H]2[C@H](C(=O)Nc3ccc(C(F)(F)F)c(C(=N)NO)c3)O[C@@](C)(C(F)(F)F)[C@H]2C)ccc(F)c1F [Example 12],76.58

# Same assay, conditions: CHO cell line stably expressing Nav1.8; patch-clamp; test concentration not given
row,Structure (SMILES),Inhibition rate (%)
1,CNNC(=O)c1cc(NC(=O)[C@@H]2O[C@@](C)(C(F)(F)F)[C@@H](C)[C@H]2c2ccc(F)c(F)c2OC)ccn1 [Example 6],71.63
2,CONC(=O)c1cc(NC(=O)[C@@H]2O[C@@](C)(C(F)(F)F)[C@@H](C)[C@H]2c2ccc(F)c(F)c2OC)ccn1 [Example 1],80.08
